# From US9670155B2, “Pyrrolidine derivatives as oxytocin/vasopressin V1a receptors antagonists” (ObsEva S.A., priority 2013, dated 2017)
# Assays:
# [1] = tested on: spontaneous uterine contractions; experiment: Inhibition of spontaneous uterine contractions in anesthetized late-term pregnant rat; format: in vivo; conditions: oral route, 10, 30 or 60 mg/kg
# Source text: Late-term pregnant (certified at days 19-21 of pregnancy) Sprague Dawley CD (SD) BR female rats (Charles River, Calco, Italy), weighing 350-400 g were anesthetized with urethane (1.05 g/kg, i.p.) and placed on a homeothermic operating table. A midline incision at the hypogastrium level was made, one pregnant uterine horn exposed and its tubal end (near the ovary) was closed by a ligature with surgical silk. Corresponding to the fetus close to the ovary, the uterine-horn wall was incised taking care not to injure the adjacent placenta and PE240 tubing with a latex balloon (9 mm length when empty, capacity 0.1 mL; Radnoti, Monrovia, Calif., USA) on the top was inserted into the lumen and secured to the uterine wall with surgical silk. After filling the internal cavity of the latex balloon with 0.1 mL of sterile physiological saline solution, the catheter was connected to an amplifying/recording system (MacLab, ADInstruments Pty Ltd, Castle Hill, Australia) via a P231D Gould-Statham pressure transducer. […] After the surgical preparation, a 30-min stabilization period was observed and then the effects of increasing doses of compounds of the present invention (given as 10-min i.v. infusion, bolus i.v. or p.o.) were evaluated by measuring the resulting uterine contractions. For the i.v. administration (infusion or bolus) the uterine contractile activity was quantified by calculating the AUC during the 10-min injection period. The percent variation of the AUC values relative to the spontaneous uterine response observed after each compound administration was calculated in comparison to the value recorded before the first dose-administration (basal value). The effect of test compounds of the present invention was evaluated by comparing pre- and post-treatment luminal uterine pressure values. […] Statistical differences between treatment groups at each time-point were determined by using one-way ANOVA followed by Tukey test. […] Contractions were continuously recorded and area-under-the-curve (AUC) integrated over 10-min time intervals.
# [2] = Qualitative solubility/crystallisation tests on 15 mg scale; format: physicochemical
# [3] = Isomeric interconversion in oral and intravenous dose formulations (HPLC); format: physicochemical; conditions: oral (Labrasol:water 1:1) and intravenous (NP3S) dose formulations, pre- and post-dose
# [4] = nominal 30 mg/kg
# Method: The animals used in this study were Sprague-Dawley, Crl: CD®BR albino rats. All animals were supplied by Charles River UK Ltd (Margate, Kent, UK). Animals were in the weight range 200-260 g and were approximately 2 months old. Rats were given a unique identity number and were identified by unique tail markings plus cage location.
# The dose groups were as follows: 4 female were given an oral dose and 4 female were given an intravenous dose.
# Dose formulations were prepared in an appropriate matrix; intravenous doses were prepared in NP3S, whilst oral doses were prepared in Labrasol:water (1:1 v/v).
smiles,measurement,setting,value
"CO/N=C1\C[C@@H](CO)N(C(=O)c2ccc(-c3ccccc3C)cc2)C1 [(3E,5S)-5-(hydroxymethyl)-1-[(2′-methyl-1,1′-biphenyl-4-yl)carbonyl]pyrrolidin-3-one O-methyloxime, reference compound]",inhibition of uterine contraction (in words),[1]; any time during the 170-180 minutes observation,no inhibition of uterine contraction
"CO/N=C1/C[C@@H](CO)N(C(=O)c2ccc(-c3ccccc3C)cc2)C1 [(3Z,5S)-5-(hydroxymethyl)-1-[(2′-methyl-1,1′-biphenyl-4-yl)carbonyl]pyrrolidin-3-one O-methyloxime]",Uterine contractions inhibition,[1]; 5 to 15 min after administration,15%
same,Uterine contractions inhibition,[1]; 170-180 minutes after administration,42%
same,Dissolves in:,"[2]; solvent DIPE, hot",40 vol
same,Dissolves in:,"[2]; solvent IPA, hot",4 vol
same,Dissolves in:,"[2]; solvent MIBK, hot",4 vol
same,Dissolves in:,"[2]; solvent THF, cold",4 vol
same,Dissolves in:,[2]; solvent heptanes,insoluble in 20 vol
same,Dissolves in:,"[2]; solvent tBuOH, hot",6 vol
same,Dissolves in:,"[2]; solvent toluene, cold",2 vol
same,interconversion to E-isomer during dose preparation or administration,[3],no detectable interconversion
"CO/N=C1/C[C@@H](CO)N(C(=O)c2ccc(-c3ccccc3C)cc2)C1 [[^14C]-(3Z,5S)-5-(hydroxymethyl)-1-[(2′-methyl-1,1′-biphenyl-4-yl)carbonyl]pyrrolidin-3-one O-methyloxime]",isomeric interconversion in vivo,"[4]; female rats, oral or intravenous dose",no detectable isomeric interconversion
same,presence of [14C]-E-isomer in plasma,[4]; rat plasma up to 6 hours after oral or intravenous administration,no evidence
